Paper PMC5641092 (Oncotarget, 2017)
Like-named read-outs stand apart in the source and are kept apart here. Residues, ends and D or L forms follow the SMILES beside them.

Tests used:
malignant melanoma = settings: cited from earlier work; for response rates: malignant melanoma patients, ref [26], [27]
Description: Though, the specific target PS has been described to be exposed by numerous cancer types, we decided to focus on treatment of a cancer type with poor prognosis and limited therapy options, like malignant melanoma. […] In 1960s the risk to develop malignant melanoma was 1:600, whereas today it is 1:75 to 1:100 [23]. Further it exerts high tendency to metastasize and is mainly chemo-resistant. Thus the long-standing applied treatment with the methylating agent dacarbazine or its oral analogue temozolomide only yie ...

[1] = Peptide stability in presence of fetal bovine serum (SDS-PAGE); assay type: in vitro ADME; settings: FBS 1:1 weight ratio, 37°C
Experimental: (§1) Peptide stability was tested in presence of bovine serum albumin (BSA, Sigma-Aldrich, Deisenhofen, Germany), fetal bovine serum (FBS, Gibco®), buffer pH 2 (30 mM citric acid/HCl, 60 mM NaCl), pH 10 (10 mM Tris/NaOH), and pepsin from porcine gastric mucosa (Sigma-Aldrich, Deisenhofen, Germany) in buffer pH 2. […] After the given time points aliquots were taken and diluted with electrophoresis loading buffer (2.5% SDS) heated for 5 minutes at 95°C and analyzed by SDS-gel electrophoreses (BioRad, Mini-PROTEAN Tetra System). As standard the Ultra-low Range Molecular Weight Marker M3546 (Sigma-Aldrich, Deisenhofen, Germany) was used. For analysis of binding to BSA after 7 days respective samples were taken and loaded on Amicon Ultra-0.5 ml Centrifugal Filters (Ultracel-10K) (Merck Millipore, Tullagreen, IRL). After centrifugation (14.000g, 30 minutes, 4°C) the filtrate was analyzed for amount of non-BSA-bound peptide by measurement of UV-absorbance of tryptophan at 280 nm. The filtrate (free) peptide amount was corrected with the peptide loss during the filtration process by a control experiment with defined peptide amount.

[2] = molecular target: T1, bovine serum albumin (BSA) (Bos taurus, UniProt P02769); test: Peptide stability in presence of BSA (SDS-PAGE); assay type: in vitro ADME; settings: BSA 1:1 weight ratio, 37°C, 1, 6 and 7 days
T1 construct: purchased Sigma-Aldrich, Deisenhofen, Germany
Experimental: (§2) Peptide stability was tested in presence of bovine serum albumin (BSA, Sigma-Aldrich, Deisenhofen, Germany), fetal bovine serum (FBS, Gibco®), buffer pH 2 (30 mM citric acid/HCl, 60 mM NaCl), pH 10 (10 mM Tris/NaOH), and pepsin from porcine gastric mucosa (Sigma-Aldrich, Deisenhofen, Germany) in buffer pH 2. Therefore peptide samples were incubated in presence of 1:1 weight ratios (10:1 in presence of pepsin) with the mentioned components or in presence of buffer (pH 2 or 10) for 1 day, 6 days and 7 days at 37°C. After the given time points aliquots were taken and diluted with electrophoresis loading buffer (2.5% SDS) heated for 5 minutes at 95°C and analyzed by SDS-gel electrophoreses (BioRad, Mini-PROTEAN Tetra System). As standard the Ultra-low Range Molecular Weight Marker M3546 (Sigma-Aldrich, Deisenhofen, Germany) was used. For analysis of binding to BSA after 7 days respective samples were taken and loaded on Amicon Ultra-0.5 ml Centrifugal Filters (Ultracel-10K) (Merck Millipore, Tullagreen, IRL). After centrifugation (14.000g, 30 minutes, 4°C) the filtrate was analyzed for amount of non-BSA-bound peptide by measurement of UV-absorbance of tryptophan at 280 nm. The filtrate (free) peptide amount was corrected with the peptide loss during the filtration process by a control experiment with defined peptide amount.

[3] = molecular target: T1, bovine serum albumin (BSA); test: Binding to BSA (centrifugal filtration, UV 280 nm); settings: after 7 days of incubation at 37°C, Amicon Ultracel-10K filtration, corrected for filtration loss
Experimental: as §2

[4] = molecular target: T2, pepsin from porcine gastric mucosa (Sus scrofa, UniProt P00791); test: Peptide stability in presence of pepsin at pH 2 (SDS-PAGE); assay type: in vitro ADME; settings: pepsin in buffer pH 2, peptide:pepsin 10:1 weight ratio, 37°C, 1, 2 and 7 days
T2 construct: pepsin from porcine gastric mucosa (Sigma-Aldrich, Deisenhofen, Germany); purchased Sigma-Aldrich, Deisenhofen, Germany; host or cells: porcine gastric mucosa
Experimental: as §1

[5] = tested on: normal human dermal fibroblasts NHDF; test: MTS cell viability assay, NHDF; assay type: cell-based; settings: 24 h, at least three experiments
Description: The human malignant melanoma cell line A375 was purchased from ATCC (American Type Culture Collection, Manassas, Virginia, US) and cultured in Dulbecco's Modified Eagle Medium with GlutaMAX™ (DMEM, Gibco®, Thermo Fisher Scientific, USA) with addition of 10% FBS (Gibco®). Melanoma cell lines from primary (SBcl-2) and metastatic (WM164) lesions (kindly provided by Dr. Meenhard Herlyn, the Wistar Institute, Philadelphia, PA) and newly established primary cells MUG-Mel1 (manuscript Rinner et al., in preparation) were maintained in RPMI 1640 medium with GlutaMAX™ (Gibco®, Thermo Fisher Scientific, USA) supplemented with 2% FBS (fetal bovine serum; Gibco®). Normal human dermal fibroblasts NHDF, used as healthy control cells, purchased from PromoCell GmbH were cultured in fibroblast growth medium 2 (PromoCell GmbH). All cells were kept in a 5% CO2 atmosphere at 37°C. […]
MTS viability assay-spectroscopy—Cell proliferation was measured by using CellTiter 96® Aqueous One Solution Cell Proliferation assay (Promega). […] The quantity of the formazan product as measured by the amount of 490 nm absorbance is directly proportional to the number of living cells in culture. Data are calculated as a percentage of the control (untreated) samples and represent the average of three wells in one experiment which was repeated three times per cell line.

[6] = tested on: human melanoma A375 xenografts; test: Mouse xenografts of human melanoma A375, intratumoral peptide treatment; assay type: in vivo, FOXN1 mice; settings: day 1 and day 3, after first and second dose of 0.33 mg
Experimental: 20 FOXN1 mice (Charles River Laboratories, Sulzfeld, Germany) were xenotransplanted with melanoma cells A375 subcutaneously in the right flank. The tumor was grown to a maximum length and width of 3 mm before peptide treatment was started (day 0). 9 mice were treated with peptide dissolved in buffer PBS (P), 5 mice were treated with pure buffer (C+), 5 mice were untreated (C-). Treatment occurred at days 0, 1, 6, 7, 8, 11 and 12 in 7 single doses by injection into the tumor. The total dose per mouse was 1.67 mg. The single doses applied at day 0 and 1 contained 0.33 mg peptide and the residual doses contained 0.20 mg. The tumor sizes were measured with manual calipers during the treatment time span. […]
The tumor sections of peptide treated and untreated mice were evaluated for the following: tumor cell types (spindle, epithelioid, or mixed), tumor size, present/ absent necrosis or fibrosis. […] We performed Ki67 staining (Ki-67 rabbit primary antibody, 30-9; ready to use with Ventana iView DAB detection kit; Pretreatment: CC1mild; All Ventana Medical Systems, Inc, Tucson, Arizona).
All values were presented as the mean ± SEM. In vivo data were analyzed by using the unpaired student's t test, p-values less than 0.001 were considered statistically significant.

[7] = Complete blood count of xenografted mice; assay type: in vivo, FOXN1 mice; settings: 7 mice
Experimental: 20 FOXN1 mice (Charles River Laboratories, Sulzfeld, Germany) were xenotransplanted with melanoma cells A375 subcutaneously in the right flank. The tumor was grown to a maximum length and width of 3 mm before peptide treatment was started (day 0). […] Treatment occurred at days 0, 1, 6, 7, 8, 11 and 12 in 7 single doses by injection into the tumor. The total dose per mouse was 1.67 mg. The single doses applied at day 0 and 1 contained 0.33 mg peptide and the residual doses contained 0.20 mg. The tumor sizes were measured with manual calipers during the treatment time span. At day 15 the mice were sacrificed and the tumors were isolated and examined together with the organs of the mice after paraffin embedment and staining of four-micron sections with hematoxylin and eosin. All animal work was done in accordance with the protocol approved by the institutional animal care and use committee at the Austrian Federal Ministry for Science and Research (BMWF) (vote 66.010/0160-II/3b/2012).

[8] = Side effects after subcutaneous injection of peptide into the flank; assay type: in vivo, mice
Experimental: To test further potential side effects of the peptide in vivo, 3 mice were injected subcutaneously into the flank with 9 doses of peptide to a total amount of 0.68 mg per mouse over 3 weeks. Then the skin at injection site, liver, kidney, spleen, and weight were checked for abnormal changes (Supplementary Figure 1, liver and kidney).

[9] = vemurafenib compared to dacarbazine, ref [30]
[10] = 3 mice, 9 s.c. doses, total 0.68 mg per mouse over 3 weeks

T1 sequence (P02769 25-607): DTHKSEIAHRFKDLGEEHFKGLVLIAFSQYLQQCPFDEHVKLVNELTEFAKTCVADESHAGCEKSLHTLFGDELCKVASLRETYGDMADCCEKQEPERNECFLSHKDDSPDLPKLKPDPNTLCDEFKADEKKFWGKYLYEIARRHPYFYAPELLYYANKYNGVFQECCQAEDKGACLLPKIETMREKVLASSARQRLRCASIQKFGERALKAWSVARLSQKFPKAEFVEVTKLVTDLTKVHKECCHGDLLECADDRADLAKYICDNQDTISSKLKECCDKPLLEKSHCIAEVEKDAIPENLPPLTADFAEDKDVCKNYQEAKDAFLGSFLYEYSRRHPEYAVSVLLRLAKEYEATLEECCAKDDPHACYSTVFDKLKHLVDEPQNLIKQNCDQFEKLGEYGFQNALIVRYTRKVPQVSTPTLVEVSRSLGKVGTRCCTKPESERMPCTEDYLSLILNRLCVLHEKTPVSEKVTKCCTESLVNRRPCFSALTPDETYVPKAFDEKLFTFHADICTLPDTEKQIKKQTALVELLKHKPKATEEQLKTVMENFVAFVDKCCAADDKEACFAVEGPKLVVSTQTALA
T2 sequence (P00791 60-385): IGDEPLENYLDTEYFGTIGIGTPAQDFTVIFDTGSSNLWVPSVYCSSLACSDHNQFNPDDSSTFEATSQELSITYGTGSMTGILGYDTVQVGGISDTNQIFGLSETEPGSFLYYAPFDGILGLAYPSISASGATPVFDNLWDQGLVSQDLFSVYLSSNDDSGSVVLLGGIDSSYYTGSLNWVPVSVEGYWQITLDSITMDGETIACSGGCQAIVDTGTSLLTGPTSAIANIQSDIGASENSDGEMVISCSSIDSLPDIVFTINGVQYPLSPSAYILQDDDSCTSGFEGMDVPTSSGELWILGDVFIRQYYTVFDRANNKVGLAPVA

CN(C)/N=N/c1[nH]cnc1C(N)=O [dacarbazine]
response rates (malignant melanoma): about 15%
percentage of 5 years survival, solely dacarbazine (malignant melanoma; ref [29]): 8%
median survival (malignant melanoma; [9]): 9.7 months

CC[C@H](C)[C@H](NC(=O)[C@H](CCCNC(=N)N)NC(=O)[C@@H](NC(=O)[C@H](CCCNC(=N)N)NC(=O)[C@H](CCCNC(=N)N)NC(=O)[C@@H]1CCCN1C(=O)[C@H](CCCNC(=N)N)NC(=O)[C@H](CCCNC(=N)N)NC(=O)[C@@H](NC(=O)[C@H](CCCNC(=N)N)NC(=O)[C@@H](NC(=O)[C@H](CCCNC(=N)N)NC(=O)[C@H](Cc1c[nH]c2ccccc12)NC(=O)[C@@H]1CCCN1)[C@@H](C)CC)[C@@H](C)CC)[C@@H](C)CC)C(=O)N[C@@H](CCCNC(=N)N)C(=O)N[C@@H](Cc1c[nH]c2ccccc12)C(=O)N1CCC[C@H]1C(N)=O [R-DIM-P-LF11-334] (H-PWRIRIRRPRRIRIRWP-NH2)
incubation time in FBS before amount of peptide is reduced [1]: more than 1 day
peptide remaining in FBS after 6 days [1]: no peptide was detectable
period of stability / complete activity in presence of FBS (blood components) [1]: 24 h
fraction of peptide left in FBS after 2 days ([1]; data not shown): about 1/3
degradation of peptide by BSA [2]: no degrading effect
binding of the peptide to BSA [3]: approximately 75%
cleavage in presence of pepsin [4]: no visible cleavage
LC50 MTS [5]: > 90 µM
local reaction at tumor after intratumoral injection [6]: in some cases a wound developed
Bas ([7]; +P): 0.68%
EVB-CV ([7]; +P): 19.44%
EVB-SD ([7]; +P): 35.95 fL
MERY ([7]; +P): 0.34%
MTHR ([7]; +P): 8.13%
Medn ([7]; +P): 4.14 fL
Mod ([7]; +P): 3.05 fL
Other (leukocytes) ([7]; +P): 2.30%
TKT ([7]; +P): 0.43%
μERY ([7]; +P): 16.00%
μTHR ([7]; +P): 16.54%
Mon ([7]; +P, normal range 1-5): 4.46%
MPV ([7]; +P, normal range 3-8): 5.91 fL
TVB ([7]; +P, normal range 6-10): 10.10
Erythrocytes ERY ([7]; +P, normal range 6-11): 8.53 10^6/μl
MCH ([7]; +P, normal range 13-22): 16.5 pg
Hb ([7]; +P, normal range 14-18): 14.06 g/dL
MCHC ([7]; +P, normal range 24-40): 32.85 g/dL
Hct ([7]; +P, normal range 35-45): 42.81%
MCV ([7]; +P, normal range 35-50): 50.18 fL
Lym ([7]; +P, normal range 70-81, marked ↑): 82.28%
Thrombocytes THR ([7]; +P, normal range 100-600, marked ↑): 705.00 10^3/μl
Eos ([7]; +P, normal range <10): 1.33%
Leukocytes LEU ([7]; peptide treated xenograft mice (+P), normal range 4-10): 6.13 10^3/μl
inflammation after subcutaneous injection [8, 10]: No inflammation occurred
organs (skin at injection site, liver, kidney, spleen) [8, 10]: unsuspicious
weight gain [8, 10]: normal
effect in liver and kidney (H&E sections) ([8]; s.c. treatment, 9 doses, Supplementary Figure 1): No effect

Cn1nnc2c(C(N)=O)ncn2c1=O [temozolomide]
response rates (malignant melanoma): about 15%

ipilimumab: immunotherapy approved by the FDA in 2011, blocks the T-cell inhibition of CTLA-4
median survival (malignant melanoma; melanoma patients, ref [28]): 12.7 months
percentage of 5 years survival, in combination with dacarbazine (malignant melanoma; patients treated with ipilimumab in combination with dacarbazine, ref [29]): 18%

CCCS(=O)(=O)Nc1ccc(F)c(C(=O)c2c[nH]c3ncc(-c4ccc(Cl)cc4)cc23)c1F [vemurafenib]
median survival (malignant melanoma; [9]): 13.6 months
